Holding throughout (assay type): functional, cell-based
The target in assay [1] is T1, Melanocortin receptor 3 (Mus musculus, UniProt P33033). Put plainly: Agonist activity at mouse MC3R expressed in HEK293 cells assessed as induction of cAMP level incubated for 2 hr by alphaScreen assay. In general terms: Cyclic AMP is a second messenger, typically raised through Gs and lowered through Gi signalling.
Assay [2] has as its target T2, Melanocortin receptor 4 (Mus musculus, UniProt P56450). In words: Antagonist activity at mouse melanocortin receptor 4 expressed in HEK293 cells assessed as inhibition of NDP-MSH-induced cAMP accumulation incubated for 2 hrs by cAMP Alpha-screen assay based Schild analysis. To be noted: for Kb: read-out: pA2 (converted).
Assay [3] deals with Melanocortin receptor 5 (Mus musculus, UniProt P41149). Put plainly: Agonist activity at mouse MC5R expressed in HEK293 cells assessed as induction of cAMP level at 100 uM incubated for 2 hr by alphaScreen assay.
Melanocortin receptor 5, sequence (P41149 whole entry): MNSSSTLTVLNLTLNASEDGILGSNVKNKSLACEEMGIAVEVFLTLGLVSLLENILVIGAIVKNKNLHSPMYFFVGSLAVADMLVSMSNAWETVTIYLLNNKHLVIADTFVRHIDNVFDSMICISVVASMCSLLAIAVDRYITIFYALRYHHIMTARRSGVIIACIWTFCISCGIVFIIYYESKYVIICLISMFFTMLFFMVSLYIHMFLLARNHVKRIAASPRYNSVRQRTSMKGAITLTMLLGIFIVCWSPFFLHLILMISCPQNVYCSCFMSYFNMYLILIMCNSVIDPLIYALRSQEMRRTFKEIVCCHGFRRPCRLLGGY
For assay [4], the target named is Melanocyte-stimulating hormone receptor (Mus musculus) (UniProt Q01727). In words: Agonist activity at mouse MC1R expressed in HEK293 cells assessed as induction of cAMP level at 100 uM incubated for 2 hr by alphaScreen assay relative to NDP-MSH.
Melanocyte-stimulating hormone receptor (Mus musculus), sequence (Q01727 whole entry, looked up): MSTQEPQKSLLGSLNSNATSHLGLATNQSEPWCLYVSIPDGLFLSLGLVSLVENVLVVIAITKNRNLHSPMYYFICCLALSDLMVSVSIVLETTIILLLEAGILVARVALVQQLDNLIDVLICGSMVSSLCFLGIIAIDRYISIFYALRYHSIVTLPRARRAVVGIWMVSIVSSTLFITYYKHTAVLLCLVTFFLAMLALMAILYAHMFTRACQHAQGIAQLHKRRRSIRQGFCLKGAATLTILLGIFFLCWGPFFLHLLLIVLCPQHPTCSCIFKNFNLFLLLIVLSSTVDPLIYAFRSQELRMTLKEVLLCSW
For assay [5], the target named is T2, Melanocortin receptor 4. In words: Agonist activity at mouse MC4R expressed in HEK293 cells assessed as induction of cAMP level incubated for 2 hr by alphaScreen assay.
Assay [6] has as its target T1, Melanocortin receptor 3. Put plainly: Antagonist activity at mouse melanocortin receptor 3 expressed in HEK293 cells assessed as inhibition of NDP-MSH-induced cAMP accumulation incubated for 2 hrs by cAMP Alpha-screen assay based Schild analysis. To be noted: for Kb: read-out: pA2 (converted).
Assay [7] addresses Melanocyte-stimulating hormone receptor (Mus musculus, UniProt Q01727). In words: Agonist activity at mouse MC1R expressed in HEK293 cells assessed as induction of cAMP level at 100 uM incubated for 2 hr by alphaScreen assay.
For assay [8], the target named is Melanocortin receptor 4 (Mus musculus) (UniProt P56450). Put plainly: Agonist activity at mouse MC4R expressed in HEK293 cells assessed as induction of cAMP level at 100 uM incubated for 2 hr by alphaScreen assay relative to control.
Melanocortin receptor 4 (Mus musculus), sequence (P56450 whole entry): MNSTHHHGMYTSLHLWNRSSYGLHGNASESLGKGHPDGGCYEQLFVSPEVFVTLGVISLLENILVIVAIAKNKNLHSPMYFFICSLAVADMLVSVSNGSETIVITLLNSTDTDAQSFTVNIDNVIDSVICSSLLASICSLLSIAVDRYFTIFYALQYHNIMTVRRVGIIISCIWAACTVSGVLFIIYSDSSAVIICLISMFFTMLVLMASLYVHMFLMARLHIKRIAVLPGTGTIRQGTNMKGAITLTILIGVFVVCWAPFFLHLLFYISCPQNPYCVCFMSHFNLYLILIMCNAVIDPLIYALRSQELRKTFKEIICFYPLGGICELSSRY

pEC50, pKi: −log10 of the molar value. Square brackets hold non-standard residues; d marks the D form. Peptide text beside a SMILES is read from it. dPhe(4-I) = N[C@H](Cc1ccc(I)cc1)C(=O)O; 2Nal = N[C@@H](Cc1ccc2ccccc2c1)C(=O)O; d2Nal = N[C@H](Cc1ccc2ccccc2c1)C(=O)O

T1 sequence (P33033 whole entry): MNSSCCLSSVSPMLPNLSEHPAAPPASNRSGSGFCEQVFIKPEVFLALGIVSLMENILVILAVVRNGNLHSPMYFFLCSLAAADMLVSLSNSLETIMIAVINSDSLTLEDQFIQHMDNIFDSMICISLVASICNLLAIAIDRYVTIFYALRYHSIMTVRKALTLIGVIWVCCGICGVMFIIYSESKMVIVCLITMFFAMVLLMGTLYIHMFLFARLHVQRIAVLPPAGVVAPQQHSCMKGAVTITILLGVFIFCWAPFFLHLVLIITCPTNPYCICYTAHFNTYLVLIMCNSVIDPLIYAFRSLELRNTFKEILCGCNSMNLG
T2 sequence (P56450 whole entry): as the sequence (P56450 whole entry) above
Melanocyte-stimulating hormone receptor, sequence (Q01727 whole entry): as the sequence (Q01727 whole entry, looked up) above

`CC(=O)N[C@H](Cc1ccc2ccccc2c1)C(=O)N[C@H](Cc1ccc2ccccc2c1)C(=O)N[C@H](Cc1ccc2ccccc2c1)C(=O)N[C@H](CCCCN)C(N)=O` (Ac-[d2Nal][d2Nal][d2Nal][dK]-NH2): the pEC50 in assay [1], in assay [3] and in assay [5] was under 4.00 in each case. Also, the Kb in assay [2] and in assay [6] was over 3.16 µM each time. In addition, the Activity in assay [4] (filed as agonist) turned out to be 55%.

With `CC(=O)N[C@H](Cc1ccc2ccccc2c1)C(=O)N[C@H](Cc1ccc2ccccc2c1)C(=O)N[C@H](Cc1ccc(I)cc1)C(=O)N[C@@H](CCCNC(=N)N)C(N)=O` (Ac-[d2Nal][d2Nal][dPhe(4-I)]R-NH2), the negative logarithm of the EC50 (pEC50) in assay [1] and in assay [5] was under 4.00 throughout. Further, the Kb in assay [2] and in assay [6] was over 3.16 µM each time. The Activity in assay [4] was 25%.

Regarding `CC(=O)N[C@H](Cc1ccc2ccccc2c1)C(=O)N[C@@H](CCCNC(=N)N)C(=O)N[C@H](Cc1ccc(I)cc1)C(=O)N[C@@H](CCCNC(=N)N)C(N)=O` (Ac-[d2Nal]R[dPhe(4-I)]R-NH2), the negative-log EC50 (pEC50) – broadly, −log10 of the EC50, conventionally taken in molar units – in assay [1] was under 4.00; in assay [7], 7.40; in assay [3] it was under 4.00; in assay [5] it was under 4.00. Further, the Kb is 0.00251 µM in assay [2] and 0.0794 µM in assay [6].

`CC(=O)N[C@H](Cc1ccc2ccccc2c1)C(=O)N[C@@H](CCCNC(=N)N)C(=O)N[C@@H](Cc1c[nH]c2ccccc12)C(=O)N[C@H](CCCCN)C(N)=O` (Ac-[d2Nal]RW[dK]-NH2): the pEC50 in assay [1], in assay [7], in assay [3] and in assay [5] was under 4.00 in each case. Moreover, the Kb in assay [2] is 0.02 µM; in assay [6], 3.16 µM.

Regarding `CC(=O)N[C@H](Cc1ccc(I)cc1)C(=O)N[C@H](Cc1ccc2ccccc2c1)C(=O)N[C@@H](Cc1c[nH]c2ccccc12)C(=O)N[C@@H](CCCNC(=N)N)C(N)=O`, the pEC50 in assay [1], in assay [7], in assay [3] and in assay [5] was under 4.00 throughout. Also, the pKi – broadly, the negative decadic logarithm of the Ki, by convention in mol/L – in assay [2] is 5.60. Moreover, the Kb in assay [2] was 2.51 µM; in assay [6], over 3.16 µM.

`CC(=O)N[C@H](Cc1ccc2ccccc2c1)C(=O)N[C@@H](CCCNC(=N)N)C(=O)N[C@H](Cc1ccc(I)cc1)C(=O)N[C@H](CCCCN)C(N)=O`: the negative logarithm of the EC50 (pEC50) in assay [1] was under 4.00; in assay [7], 6.66; in assay [3], under 4.00; in assay [5] it was under 4.00. Also, the Kb in assay [2] was 0.00316 µM; in assay [6], 0.126 µM.

For the molecule `CC(=O)N[C@H](Cc1ccc(I)cc1)C(=O)N[C@H](Cc1ccc2ccccc2c1)C(=O)N[C@H](Cc1ccc2ccccc2c1)C(=O)N[C@H](CCCCN)C(N)=O` (Ac-[dPhe(4-I)][d2Nal][d2Nal][dK]-NH2), the negative-log EC50 (pEC50) in assay [1], in assay [3] and in assay [5] was under 4.00 each time. The Kb in assay [2] was 0.501 µM; in assay [6], over 3.16 µM.

Regarding `CC(=O)N[C@H](Cc1ccc(I)cc1)C(=O)N[C@H](Cc1ccc2ccccc2c1)C(=O)N[C@H](Cc1ccc(I)cc1)C(=O)N[C@H](CCCCN)C(N)=O`, the negative logarithm of the EC50 (pEC50) in assay [1], in assay [7], in assay [3] and in assay [5] was under 4.00 each time. Moreover, the Kb in assay [2] and in assay [6] was over 3.16 µM throughout.

For the molecule `CC(=O)N[C@H](Cc1ccc2ccccc2c1)C(=O)N[C@H](Cc1ccc2ccccc2c1)C(=O)N[C@H](Cc1ccc(I)cc1)C(=O)N[C@H](CCCCN)C(N)=O` (Ac-[d2Nal][d2Nal][dPhe(4-I)][dK]-NH2), the negative logarithm of the EC50 (pEC50) in assay [1], in assay [3] and in assay [5] was under 4.00 throughout. Moreover, the Kb in assay [2] and in assay [6] was over 3.16 µM each time. The Activity in assay [4] was 20%.

For the molecule `CC(=O)N[C@H](Cc1ccc(I)cc1)C(=O)N[C@@H](CCCNC(=N)N)C(=O)N[C@@H](Cc1c[nH]c2ccccc12)C(=O)N[C@H](CCCCN)C(N)=O` (Ac-[dPhe(4-I)]RW[dK]-NH2), the pEC50 in assay [1], in assay [7], in assay [3] and in assay [5] was under 4.00 throughout. For the same molecule, the pKi in assay [2] is 7.60; in assay [6], 6.20. Besides, the Kb in assay [2] was 0.0251 µM; in assay [6], 0.631 µM.

Regarding `CC(=O)N[C@H](Cc1ccc(I)cc1)C(=O)N[C@@H](CCCNC(=N)N)C(=O)N[C@@H](Cc1ccc2ccccc2c1)C(=O)N[C@H](Cc1ccc2ccccc2c1)C(N)=O` (Ac-[dPhe(4-I)]R[2Nal][d2Nal]-NH2), the pEC50 in assay [1], in assay [3] and in assay [5] was under 4.00 throughout. Further, in assay [2], the pKi is 6.70. Further, the Kb was 0.2 µM in assay [2] and over 3.16 µM in assay [6]. Also, the Activity in assay [4] (filed as agonist) was 55%.

Turning to `CC(=O)N[C@H](Cc1ccc(I)cc1)C(=O)N[C@H](Cc1ccc2ccccc2c1)C(=O)N[C@@H](Cc1c[nH]c2ccccc12)C(=O)N[C@H](CCCCN)C(N)=O` (Ac-[dPhe(4-I)][d2Nal]W[dK]-NH2), the pEC50 in assay [1], in assay [3] and in assay [5] was under 4.00 throughout. For the same molecule, the negative-log Ki (pKi) in assay [2] is 6.60; in assay [6] it was 5.70. Also, the Kb is 0.251 µM in assay [2] and 2 µM in assay [6]. The Activity in assay [4] (filed as agonist) was determined as 65%.

Regarding `CC(=O)N[C@H](Cc1ccc(I)cc1)C(=O)N[C@H](Cc1ccc2ccccc2c1)C(=O)N[C@H](Cc1ccc(I)cc1)C(=O)N[C@@H](CCCNC(=N)N)C(N)=O` (Ac-[dPhe(4-I)][d2Nal][dPhe(4-I)]R-NH2), the negative logarithm of the EC50 (pEC50) in assay [1] and in assay [5] was under 4.00 in each case. The Kb in assay [2] and in assay [6] was over 3.16 µM each time. The Activity in assay [4] (filed as agonist) amounted to 40%.

`CC(=O)N[C@H](Cc1ccc2ccccc2c1)C(=O)N[C@H](Cc1ccc2ccccc2c1)C(=O)N[C@@H](Cc1c[nH]c2ccccc12)C(=O)N[C@H](CCCCN)C(N)=O` (Ac-[d2Nal][d2Nal]W[dK]-NH2): the pEC50 in assay [1] and in assay [3] was under 4.00 throughout. Moreover, the Activity in assay [8] was determined as 30%; in assay [4], 25%. For the same molecule, the Kb in assay [2] is 0.2 µM; in assay [6] it was 1.58 µM.

For the molecule `CC(=O)N[C@H](Cc1ccc2ccccc2c1)C(=O)N[C@@H](CCCNC(=N)N)C(=O)N[C@@H](Cc1c[nH]c2ccccc12)C(=O)N[C@@H](CCCNC(=N)N)C(N)=O` (Ac-[d2Nal]RWR-NH2), the negative logarithm of the EC50 (pEC50) in assay [1] and in assay [3] was under 4.00 in each case. The Activity in assay [8] amounted to 20%. Moreover, the figures for the Kb in assay [2] and in assay [6] were 0.00501 µM and 0.158 µM, respectively.

As for `CC(=O)N[C@H](Cc1ccc2ccccc2c1)C(=O)N[C@H](Cc1ccc2ccccc2c1)C(=O)N[C@@H](Cc1ccc2ccccc2c1)C(=O)N[C@H](CCCCN)C(N)=O` (Ac-[d2Nal][d2Nal][2Nal][dK]-NH2), the pEC50 in assay [1], in assay [3] and in assay [5] was under 4.00 in each case. The Kb in assay [2] and in assay [6] was over 3.16 µM in each case. For the same molecule, the Activity in assay [4] (filed as agonist) amounted to 45%.

As for `CC(=O)N[C@H](Cc1ccc(I)cc1)C(=O)N[C@H](Cc1ccc2ccccc2c1)C(=O)N[C@@H](Cc1ccc2ccccc2c1)C(=O)N[C@@H](CCCNC(=N)N)C(N)=O` (Ac-[dPhe(4-I)][d2Nal][2Nal]R-NH2), the negative-log EC50 (pEC50) in assay [1] is under 4.00; in assay [3] it was 6.10; in assay [5], under 4.00. Moreover, in assay [2], the pKi was 5.80. Besides, the Kb in assay [2] is 1.58 µM; in assay [6] it was over 3.16 µM.

The values are drawn from ChEMBL document CHEMBL4828766 (J Med Chem, 2021).
